From ChEMBL document CHEMBL1143799, “Synthesis and primary cytotoxicity evaluation of new imidazo[2,1-b]thiazole derivatives” (2007)

Key:
Format in all cases: functional
MOLT-4 = assay: Growth inhibition of human MOLT4 cells after 48 hrs by SRB protein assay; conditions: MOLT-4, 48 h
RPMI-8226 = assay: Growth inhibition of human RPMI8226 cells after 48 hrs by SRB protein assay; conditions: RPMI-8226, 48 h
EKVX = assay: Growth inhibition of human EKVX cells after 48 hrs by SRB protein assay
HOP-62 = assay: Growth inhibition of human HOP62 cells after 48 hrs by SRB protein assay; conditions: HOP-62, 48 h
HOP-92 = assay: Growth inhibition of human HOP92 cells after 48 hrs by SRB protein assay; conditions: HOP-92, 48 h
NCI-H23 = assay: Growth inhibition of human NCI-H23 cells after 48 hrs by SRB protein assay; conditions: NCI-H23, 48 h
NCI-H322M = assay: Growth inhibition of human NCI-H322M cells after 48 hrs by SRB protein assay
NCI-H460 = assay: Growth inhibition of human NCI-H460 cells after 48 hrs by SRB protein assay; conditions: NCI-H460, 48 h
NCI-H522 = assay: Growth inhibition of human NCI-H522 cells after 48 hrs by SRB protein assay; conditions: NCI-H522, 48 h
COLO 205 = assay: Growth inhibition of human COLO205 cells after 48 hrs by SRB protein assay; conditions: COLO 205, 48 h
HCT-116 = assay: Growth inhibition of human HCT116 cells after 48 hrs by SRB protein assay; conditions: HCT-116, 48 h
HCT-15 = assay: Growth inhibition of human HCT15 cells after 48 hrs by SRB protein assay; conditions: HCT-15, 48 h
KM12 = assay: Growth inhibition of human KM12 cells after 48 hrs by SRB protein assay; conditions: KM12, 48 h
SW-620 = assay: Growth inhibition of human SW620 cells after 48 hrs by SRB protein assay; conditions: SW-620, 48 h
SF-268 = assay: Growth inhibition of human SF268 cells after 48 hrs by SRB protein assay; conditions: SF-268, 48 h
SF-295 = assay: Growth inhibition of human SF295 cells after 48 hrs by SRB protein assay; conditions: SF-295, 48 h
SF-539 = assay: Growth inhibition of human SF539 cells after 48 hrs by SRB protein assay; conditions: SF-539, 48 h
SNB-19 = assay: Growth inhibition of human SNB19 cells after 48 hrs by SRB protein assay; conditions: SNB-19, 48 h
SNB-75 = assay: Growth inhibition of human SNB75 cells after 48 hrs by SRB protein assay; conditions: SNB-75, 48 h
U-251 = assay: Growth inhibition human U251 of cells after 48 hrs by SRB protein assay; conditions: U-251, 48 h
LOX IMVI = assay: Growth inhibition of human LOX IMVI cells after 48 hrs by SRB protein assay
M14 = assay: Growth inhibition of human M14 cells after 48 hrs by SRB protein assay; conditions: M14, 48 h
SK-MEL-2 = assay: Growth inhibition of human SK-MEL-2 cells after 48 hrs by SRB protein assay; conditions: SK-MEL-2, 48 h
SK-MEL-28 = assay: Growth inhibition of human SK-MEL-28 cells after 48 hrs by SRB protein assay; conditions: SK-MEL-28, 48 h
UACC-257 = assay: Growth inhibition of human UACC257 cells after 48 hrs by SRB protein assay; conditions: UACC-257, 48 h
UACC-62 = assay: Growth inhibition of human UACC62 cells after 48 hrs by SRB protein assay; conditions: UACC-62, 48 h
IGROV-1 = assay: Growth inhibition of human IGROV1 cells after 48 hrs by SRB protein assay; conditions: IGROV-1, 48 h
OVCAR-3 = assay: Growth inhibition of human OVCAR-3 cells after 48 hrs by SRB protein assay; conditions: OVCAR-3, 48 h
SK-OV-3 = assay: Growth inhibition of human SK-OV-3 cells after 48 hrs by SRB protein assay; conditions: SK-OV-3, 48 h
[1] = Growth inhibition of human 786O cells after 48 hrs by SRB protein assay; conditions: 786-0, 48 h
ACHN = assay: Growth inhibition of human ACHN cells after 48 hrs by SRB protein assay
RXF 393 = assay: Growth inhibition of human RXF393 cells after 48 hrs by SRB protein assay; conditions: RXF 393, 48 h
SN12C = assay: Growth inhibition of human SN12C cells after 48 hrs by SRB protein assay
UO-31 = assay: Growth inhibition of human UO31 cells after 48 hrs by SRB protein assay; conditions: UO-31, 48 h
MCF7 = assay: Growth inhibition of human MCF7 cells after 48 hrs by SRB protein assay; conditions: MCF7, 48 h
MDA-MB-231 = assay: Growth inhibition of MDA-MB-231 cells after 48 hrs by SRB protein assay; conditions: Homo sapiens, MDA-MB-231, 48 h
Hs-578T = assay: Growth inhibition of human HS578T cells after 48 hrs by SRB protein assay
MDA-MB-435 = assay: Growth inhibition of human MDA-MB-435 cells after 48 hrs by SRB protein assay; conditions: MDA-MB-435, 48 h
BT-549 = assay: Growth inhibition of human BT549 cells after 48 hrs by SRB protein assay; conditions: BT-549, 48 h

## O=C(Cc1csc2nc(-c3ccc(Br)cc3)cn12)N/N=C/c1ccc(Cl)cc1Cl
MOLT-4
  GI50: 1 µM
MOLT-4; read-out: Log TGI (converted)
  TGI: 26.3 µM
RPMI-8226
  GI50: 79.4 µM
RPMI-8226; read-out: Log TGI (converted)
  TGI: > 100 µM
EKVX
  GI50: 31.6 µM
EKVX; read-out: Log TGI (converted)
  TGI: > 100 µM
HOP-62
  GI50: 16.6 µM
HOP-62; read-out: Log TGI (converted)
  TGI: 34.7 µM
HOP-92
  GI50: 28.2 µM
HOP-92; read-out: Log TGI (converted)
  TGI: > 100 µM
NCI-H23
  GI50: 25.7 µM
NCI-H23; read-out: Log TGI (converted)
  TGI: 56.2 µM
NCI-H322M
  GI50: 24.5 µM
NCI-H322M; read-out: Log TGI (converted)
  TGI: 69.2 µM
NCI-H460
  GI50: > 100 µM
NCI-H460; read-out: Log TGI (converted)
  TGI: > 100 µM
NCI-H522
  GI50: 25.7 µM
NCI-H522; read-out: Log TGI (converted)
  TGI: > 100 µM
COLO 205
  GI50: 75.9 µM
COLO 205; read-out: Log TGI (converted)
  TGI: > 100 µM
HCT-116
  GI50: 17 µM
HCT-116; read-out: Log TGI (converted)
  TGI: 37.2 µM
HCT-15
  GI50: 25.7 µM
HCT-15; read-out: Log TGI (converted)
  TGI: 72.4 µM
KM12
  GI50: 38 µM
KM12; read-out: Log TGI (converted)
  TGI: > 100 µM
SW-620
  GI50: 22.9 µM
SW-620; read-out: Log TGI (converted)
  TGI: 60.3 µM
SF-268
  GI50: > 100 µM
SF-268; read-out: Log TGI (converted)
  TGI: > 100 µM
SF-295
  GI50: 34.7 µM
SF-295; read-out: Log TGI (converted)
  TGI: > 100 µM
SF-539
  GI50: 26.9 µM
SF-539; read-out: Log TGI (converted)
  TGI: 63.1 µM
SNB-19
  GI50: 95.5 µM
SNB-19; read-out: Log TGI (converted)
  TGI: > 100 µM
SNB-75
  GI50: 37.2 µM
SNB-75; read-out: Log TGI (converted)
  TGI: > 100 µM
U-251
  GI50: 20.4 µM
U-251; read-out: Log TGI (converted)
  TGI: 44.7 µM
LOX IMVI
  GI50: 21.4 µM
LOX IMVI; read-out: Log TGI (converted)
  TGI: 49 µM
M14
  GI50: 33.1 µM
M14; read-out: Log TGI (converted)
  TGI: > 100 µM
SK-MEL-2
  GI50: 72.4 µM
SK-MEL-2; read-out: Log TGI (converted)
  TGI: > 100 µM
SK-MEL-28
  GI50: > 100 µM
SK-MEL-28; read-out: Log TGI (converted)
  TGI: > 100 µM
UACC-257
  GI50: 69.2 µM
UACC-257; read-out: Log TGI (converted)
  TGI: > 100 µM
UACC-62
  GI50: 23.4 µM
UACC-62; read-out: Log TGI (converted)
  TGI: 67.6 µM
IGROV-1
  GI50: 15.8 µM
IGROV-1; read-out: Log TGI (converted)
  TGI: 45.7 µM
OVCAR-3
  GI50: 34.7 µM
OVCAR-3; read-out: Log TGI (converted)
  TGI: > 100 µM
SK-OV-3
  GI50: > 100 µM
SK-OV-3; read-out: Log TGI (converted)
  TGI: > 100 µM
[1]
  GI50: 25.7 µM
[1]; read-out: Log TGI (converted)
  TGI: 74.1 µM
ACHN
  GI50: 22.4 µM
ACHN; read-out: Log TGI (converted)
  TGI: 53.7 µM
RXF 393
  GI50: 28.2 µM
RXF 393; read-out: Log TGI (converted)
  TGI: 85.1 µM
SN12C
  GI50: 85.1 µM
SN12C; read-out: Log TGI (converted)
  TGI: > 100 µM
UO-31
  GI50: 72.4 µM
UO-31; read-out: Log TGI (converted)
  TGI: > 100 µM
MCF7
  GI50: > 100 µM
MCF7; read-out: Log TGI (converted)
  TGI: > 100 µM
MDA-MB-231
  GI50: 26.3 µM
MDA-MB-231; read-out: Log TGI (converted)
  TGI: > 100 µM
Hs-578T
  GI50: 31.6 µM
Hs-578T; read-out: Log TGI (converted)
  TGI: 89.1 µM
MDA-MB-435
  GI50: 31.6 µM
MDA-MB-435; read-out: Log TGI (converted)
  TGI: > 100 µM
BT-549
  GI50: 25.7 µM
BT-549; read-out: Log TGI (converted)
  TGI: 77.6 µM
